We go through nine molecules from US20130109682A1, “CYCLIC ETHER COMPOUNDS USEFUL AS KINASE INHIBITORS” (NOVARTIS AG, priority 2010, published 2013).

One assay addresses PIM2 (Homo sapiens, UniProt Q9P1W9). Nature of the assay: KinaseGlo Pim2 ATP depletion assay. Format: biochemical. An outline of the steps: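 Compound sat 15 min with enzyme and BAD peptide before ATP was added; final levels 5 nM PIM2, 10 μM peptide, 4 μM ATP, 2.5% DMSO, pH 7.5 HEPES buffer with MgCl2, DTT, BSA. Stopped near 50% ATP consumption; remaining ATP measured by luciferase luminescence.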
(In general: Kinase-Glo reads ATP consumption through a luciferase reaction.)

In the next assay the target is PIM1 (Homo sapiens, UniProt P11309). Description: KinaseGlo Pim1 ATP depletion assay. In kind it is biochemical. An outline of the steps:
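IC50 is derived from residual ATP measured by KinaseGlo Plus luminescence once about half the ATP was consumed. Final conditions were 20 μM ATP, 40 μM BAD peptide and 2.5 nM kinase in HEPES pH 7.5 buffer with MgCl2, DTT and BSA, plus 2.5% DMSO. Compound and enzyme were premixed 15 min before ATP addition.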

The target in another assay is GSK3β (Homo sapiens, UniProt P49841). Description: GSK3β ATP depletion assay. In kind it is biochemical. The note with it: read-out: GSK3b IC50. Summed up: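 Kinase activity is read as ATP consumption: luciferase luminescence reports the ATP remaining once roughly half of the 2 μM ATP is used. Reaction mix: 5 nM GSK3β, 10 μM b-CREB peptide, 50 mM Tris pH 7.5, 15 mM MgCl2, 1 mM DTT, 0.1% BSA, 2.5% DMSO. Enzyme and peptide are preincubated 15 min before ATP is added.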
GSK3β, sequence (P49841 whole entry, species assumed): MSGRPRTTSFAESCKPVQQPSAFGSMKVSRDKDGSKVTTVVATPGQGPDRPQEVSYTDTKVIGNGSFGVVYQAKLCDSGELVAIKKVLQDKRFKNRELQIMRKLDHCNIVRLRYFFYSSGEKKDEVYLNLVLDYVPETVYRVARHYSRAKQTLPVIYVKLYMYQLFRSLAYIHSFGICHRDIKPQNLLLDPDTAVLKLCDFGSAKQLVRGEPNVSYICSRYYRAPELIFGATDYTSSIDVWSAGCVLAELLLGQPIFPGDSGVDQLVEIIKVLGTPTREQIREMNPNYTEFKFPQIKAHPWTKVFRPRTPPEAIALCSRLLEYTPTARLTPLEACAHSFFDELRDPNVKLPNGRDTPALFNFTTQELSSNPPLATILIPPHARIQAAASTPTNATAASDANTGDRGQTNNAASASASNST

The next assay addresses PIM3 (Homo sapiens, UniProt Q86V86). Description: KinaseGlo Pim3 ATP depletion assay. Format: biochemical. An outline of the steps: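 Residual ATP was detected by luciferase luminescence once about half had been consumed. The reaction contained 5 nM enzyme, 100 μM BAD peptide (RSRHSSYPAGT) and 40 μM ATP in 50 mM HEPES pH 7.5, 5 mM MgCl2, 1 mM DTT and 0.05% BSA with 2.5% DMSO. Compound and enzyme/peptide were premixed 15 min before ATP.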

The next assay has as its target T1, hERG (Homo sapiens, UniProt Q12809).
T1 construct: host or cells: crude membrane suspension
Description: hERG binding assay ([3H] dofetilide displacement). The note with it: dofetilide displacement; read-out: HERGdof IC50. The protocol:
Compounds of the invention were pipetted into each well of pre-wet 96-well Millipore GF/C filter plates (#MSFCN6B50): 119 μl assay buffer, 1 μl test compound in 100% DMSO (or 100% DMSO only for total binding), 40 μl [3H] dofetilide (12.5 nM, final concentration 2.5 nM; Novartis radioisotope laboratory, East Hanover, N.J., USA, specific activity 15-45 Ci/mmol); 40 μl crude membrane suspension (ca. 15 μg protein). The final concentration of DMSO during the incubation was 0.5%. Incubations were performed at room temperature for 90 min. Non-specific binding (NSB) was defined as the binding remaining in the presence of 25 μM terfenadine (Sigma T9652). The incubations were terminated by rapid filtration on a Millipore filtration manifold, followed by three washes of 200 μA ice-cold assay buffer. The plates were left to dry overnight before adding 40 μA scintillant (MicroScint-20). The plates were then sealed (Sealing Tape SI, Nunc 236366) and read in a Wallac MicroBeta Trilux beta-counter for 1.5 min per well. Compounds were tested as 9-concentration response curves in duplicate, ranging from 30 μM to 3 nM in 1:3 dilution steps. Dilution curves were prepared in 100% DMSO. The reference compound (terfenadine) was tested as an eight-concentration response curve, ranging from 10 μM to 0.6 nM in 1:4 dilution steps.

The subject of assay [1] is KMS11 (human myeloma cell line). Nature of the assay: Cell proliferation assay (CellTiter-Glo), KMS11. In kind it is cell-based. The note with it: KMS11-Luc cells. An outline of the steps: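 EC50 derived from CellTiter-Glo luminescence after 3-day exposure at 37° C. Compound was diluted to 2× in medium and added to an equal volume of cells. KMS11 myeloma cells were plated on assay day at 2000/well in IMDM with 10% FBS and sodium pyruvate.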

Each structure is given as a SMILES string.

T1 sequence (Q12809 whole entry): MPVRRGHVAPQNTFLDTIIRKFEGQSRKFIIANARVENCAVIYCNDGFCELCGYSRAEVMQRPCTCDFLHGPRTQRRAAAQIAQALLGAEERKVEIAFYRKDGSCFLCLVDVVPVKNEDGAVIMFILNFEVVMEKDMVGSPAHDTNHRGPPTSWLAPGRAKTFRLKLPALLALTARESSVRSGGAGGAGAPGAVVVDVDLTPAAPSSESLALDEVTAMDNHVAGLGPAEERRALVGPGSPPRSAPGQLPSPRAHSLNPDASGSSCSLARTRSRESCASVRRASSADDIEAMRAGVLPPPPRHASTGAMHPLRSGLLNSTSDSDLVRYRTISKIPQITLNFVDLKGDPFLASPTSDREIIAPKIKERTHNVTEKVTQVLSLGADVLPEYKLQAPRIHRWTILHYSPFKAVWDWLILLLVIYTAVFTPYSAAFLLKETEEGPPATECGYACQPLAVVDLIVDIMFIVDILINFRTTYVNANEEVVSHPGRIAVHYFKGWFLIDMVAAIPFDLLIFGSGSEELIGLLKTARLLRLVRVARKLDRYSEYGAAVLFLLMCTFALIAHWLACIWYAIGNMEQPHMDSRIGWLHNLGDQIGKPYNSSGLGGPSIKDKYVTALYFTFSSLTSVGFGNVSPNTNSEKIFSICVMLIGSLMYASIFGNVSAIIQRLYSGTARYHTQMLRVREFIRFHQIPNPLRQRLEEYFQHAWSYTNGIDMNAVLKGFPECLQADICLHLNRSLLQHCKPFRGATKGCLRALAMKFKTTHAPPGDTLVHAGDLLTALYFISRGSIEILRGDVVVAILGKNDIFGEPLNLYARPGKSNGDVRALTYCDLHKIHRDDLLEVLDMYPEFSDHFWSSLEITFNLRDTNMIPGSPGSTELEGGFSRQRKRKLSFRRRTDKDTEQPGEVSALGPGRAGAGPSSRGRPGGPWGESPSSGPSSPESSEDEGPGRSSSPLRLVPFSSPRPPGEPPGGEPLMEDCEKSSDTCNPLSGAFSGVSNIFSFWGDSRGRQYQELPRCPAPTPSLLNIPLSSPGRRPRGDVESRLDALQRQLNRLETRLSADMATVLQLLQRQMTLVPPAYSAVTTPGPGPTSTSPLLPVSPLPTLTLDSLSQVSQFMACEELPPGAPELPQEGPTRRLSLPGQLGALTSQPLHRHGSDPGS
PIM2, sequence (Q9P1W9 whole entry): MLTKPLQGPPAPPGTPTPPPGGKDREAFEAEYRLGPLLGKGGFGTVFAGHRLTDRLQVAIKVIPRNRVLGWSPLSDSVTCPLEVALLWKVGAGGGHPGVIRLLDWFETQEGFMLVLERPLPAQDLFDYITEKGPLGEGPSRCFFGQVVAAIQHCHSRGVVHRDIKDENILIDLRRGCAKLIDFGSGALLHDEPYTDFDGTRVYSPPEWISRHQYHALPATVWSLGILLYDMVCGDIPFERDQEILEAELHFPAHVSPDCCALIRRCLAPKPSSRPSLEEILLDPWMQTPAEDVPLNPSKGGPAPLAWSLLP
PIM1, sequence (P11309 whole entry): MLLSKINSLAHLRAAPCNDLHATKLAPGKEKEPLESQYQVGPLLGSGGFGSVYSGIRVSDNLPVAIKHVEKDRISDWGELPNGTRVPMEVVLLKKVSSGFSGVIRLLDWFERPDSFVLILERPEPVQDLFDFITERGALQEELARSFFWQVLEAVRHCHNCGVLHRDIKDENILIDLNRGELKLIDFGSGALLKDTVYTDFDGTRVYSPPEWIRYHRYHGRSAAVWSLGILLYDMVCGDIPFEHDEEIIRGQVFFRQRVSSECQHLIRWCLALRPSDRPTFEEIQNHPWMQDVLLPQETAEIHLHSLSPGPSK

The term IC50 denotes the concentration at which inhibition is half-maximal. The term EC50 denotes the concentration that produces a half-maximal response. Read a high EC50 as lower potency in that assay. Regarding `C[C@@H]1O[C@H](c2ccncc2NC(=O)c2ccc(F)c(-c3c(F)cccc3F)n2)[C@@H](F)[C@H](O)[C@@]1(C)O` (stereo in doubt) [Example 71, 6-(2,6-difluorophenyl)-5-fluoro-N-(4-((2R,3S,4R,5R,6S)-3-fluoro-4,5-dihydroxy-5,6-dimethyltetrahydro-2H-pyran-2-yl)pyridin-3-yl)picolinamide], the IC50 was 52 nM on PIM2; 1 nM against PIM1; 1480 nM at GSK3β; 6 nM against PIM3; > 30000 nM on hERG. The molecule further had a 50% effective concentration (EC50) in assay [1] (Homo sapiens, KMS-11) of 6400 nM.

Consider `CC[C@]1(O)[C@H](O)C[C@H](c2ccncc2NC(=O)c2nc(-c3c(F)cccc3F)ncc2N)O[C@@H]1C` [Example 16, 5-amino-2-(2,6-difluorophenyl)-N-(4-((2R,4R,5S,6R)-5-ethyl-4,5-dihydroxy-6-methyltetrahydro-2H-pyran-2-yl)pyridin-3-yl)pyrimidine-4-carboxamide], for which the IC50 is 3 nM at PIM2; 1 nM on PIM1; 101 nM at GSK3β; 2 nM at PIM3; > 30000 nM at hERG. This molecule also returned an EC50 in assay [1] of 1940 nM.

For `CC1C(c2ccncc2NC(=O)c2ccc(F)c(-c3c(F)cccc3F)n2)OC(C)[C@@H](O)C1O` (stereo in doubt) [Example 64, 6-(2,6-difluorophenyl)-N-(4-((2S,3R,4S,5S,6S)-4,5-dihydroxy-3,6-dimethyltetrahydro-2H-pyran-2-yl)pyridin-3-yl)-5-fluoropicolinamide], the IC50 against PIM2 was 16 nM; against PIM1, 1 nM; on GSK3β it was 549 nM; on PIM3, 2 nM; at hERG it was > 30000 nM. The molecule also yielded a half-maximal effective concentration (EC50) in assay [1] (Homo sapiens, KMS-11) of 800 nM.

On to `CC[C@@]1(O)[C@H](O)C[C@H](c2ccncc2NC(=O)c2ccc(F)c(-c3c(F)cccc3F)n2)O[C@@H]1C` [Example 74, 6-(2,6-difluorophenyl)-N-(4-((2R,4R,5R,6R)-5-ethyl-4,5-dihydroxy-6-methyltetrahydro-2H-pyran-2-yl)pyridin-3-yl)-5-fluoropicolinamide], for which the IC50 against PIM2 is 11 nM; against PIM1, 1 nM; at GSK3β, 316 nM; against PIM3, 5 nM; on hERG, > 30000 nM. The molecule also came in with an EC50 in assay [1] (Homo sapiens, KMS-11) of 3600 nM.

With `CC(C)NC(=O)c1ccc(F)c(-c2ccc(N)c(C(=O)Nc3cnccc3[C@H]3C[C@@H](O)[C@](C)(O)[C@@H](C)O3)n2)c1` [Example 104, 3-amino-N-(4-((2R,4R,5S,6R)-4,5-dihydroxy-5,6-dimethyltetrahydro-2H-pyran-2-yl)pyridin-3-yl)-6-(2-fluoro-5-(isopropylcarbamoyl)phenyl)picolinamide], the IC50 is 3 nM at PIM2; 2 nM against PIM1; 979 nM at GSK3β; 2 nM at PIM3; > 30000 nM on hERG. The same molecule showed an EC50 in assay [1] (Homo sapiens, KMS-11) of 2300 nM.

`CC(C)NC(=O)c1ccc(F)c(-c2ccc(N)c(C(=O)Nc3cnccc3[C@@H]3C[C@@H](O)[C@](C)(O)[C@@H](C)O3)n2)c1F` [Example 98, 3-amino-6-(2,6-difluoro-3-(isopropylcarbamoyl)phenyl)-N-(4-((2S,4R,5S,6R)-4,5-dihydroxy-5,6-dimethyltetrahydro-2H-pyran-2-yl)pyridin-3-yl)picolinamide]: the IC50 on PIM2 was 2 nM; at PIM1, 2 nM; on GSK3β, 916 nM; at PIM3, 3 nM; on hERG it was > 30000 nM. This molecule came in with an EC50 in assay [1] (Homo sapiens, KMS-11) of 500 nM.

For `C[C@H]1C[C@@H](N)C[C@@H](c2ccncc2NC(=O)c2csc(-c3c(F)cccc3F)n2)O1` [Example 123, N-(4-((2S,4R,6S)-4-amino-6-methyltetrahydro-2H-pyran-2-yl)pyridin-3-yl)-2-(2,6-difluorophenyl)thiazole-4-carboxamide], the IC50 was 44 nM against PIM2; 1 nM against PIM1; 421 nM on GSK3β; 7 nM at PIM3; 12000 nM on hERG. The same molecule had an EC50 in assay [1] (Homo sapiens, KMS-11) of 4200 nM.

For `C[C@@H]1C[C@H](N)C[C@H](c2ccncc2NC(=O)c2ccc(F)c(-c3c(F)cccc3F)n2)O1` [Example 122, N-(4-((2R,4S,6R)-4-amino-6-methyltetrahydro-2H-pyran-2-yl)pyridin-3-yl)-6-(2,6-difluorophenyl)-5-fluoropicolinamide], the IC50 at PIM2 was found to be 45 nM; against PIM1, 2 nM; on GSK3β it was 12300 nM; against PIM3, 10 nM; on hERG, 2000 nM. Also, the midpoint of the response in assay [1] (Homo sapiens, KMS-11), the EC50, lay at 4700 nM.

For `C[C@@H]1O[C@H](c2ccncc2NC(=O)c2cncc(-c3ccccc3)n2)C[C@H](O)[C@@]1(C)O` [Example 87, N-(4-((2S,4S,5R,6S)-4,5-dihydroxy-5,6-dimethyltetrahydro-2H-pyran-2-yl)pyridin-3-yl)-6-phenylpyrazine-2-carboxamide], the IC50 at PIM2 was > 25000 nM; against PIM1 it was 937 nM; on GSK3β, 809 nM; against PIM3, 2670 nM; at hERG, > 30000 nM. In addition, in assay [1] (Homo sapiens, KMS-11), the EC50 was > 10000 nM.
